These compounds were tested against T1, Recombinant human LTC4 synthase (Homo sapiens, UniProt Q16873) (assay: LTC4 synthase in vitro assay (HTRF detection of LTC4)). Details: compound concentration 1 μM; HTRF method.
T1 construct: made in house; host or cells: Pichia pastoris
T1 sequence (Q16873 1-150): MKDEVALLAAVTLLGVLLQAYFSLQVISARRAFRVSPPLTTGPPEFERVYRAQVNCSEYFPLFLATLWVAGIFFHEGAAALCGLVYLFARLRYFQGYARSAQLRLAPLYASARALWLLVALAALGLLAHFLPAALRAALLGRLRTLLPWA
Assay type: biochemical
Procedure: Alternatively HTRF detection of LTC4 can be used:
In the assay, LTC4 synthase catalyses the reaction where the substrate LTA4 is converted to LTC4. Recombinant human LTC4 synthase is expressed in Piccia pastoralis and the purified enzyme is dissolved in 25 mM Tris-buffer pH 7.8 supplemented with 0.1 mM glutathione (GSH) and stored at −80° C. The assay is performed in phosphate buffered saline (PBS) pH 7.4 and 5 mM GSH in 384-well plates.
The following is added chronologically to each well: • 1. 48 μl LTC4 synthase in PBS with 5 mM GSH. The total protein concentration in this solution is 0.5 μg/ml. • 2. […] Incubation of the plate at room temperature for 10 minutes. • 4. 1 μl LTA4 (final conc. 2.5 μM). • 5. Incubation of the plate at room temperature for 5 minutes. • 6. 10 μl of the incubation mixture is analysed using homogeneous time resolved fluorescent (HTRF) detection.

| SMILES | % inh. |
| --- | --- |
| O=C(Cc1ccc(Cl)cc1)Nc1ccc(Oc2ccc(NC(=O)c3ccc(C(F)(F)F)cc3)c(C(=O)O)c2)cc1 [8:7, 5-[(4-(2-(4-chlorophenyl)acetyl-amino)phenoxy)]-2-(4-trifluoro-methylbenzoylamino)benzoic acid] | 64 (1 μM) % |

Same assay, conditions: compound concentration 3 μM; HTRF method

| inhibition at 3 µM | SMILES |
| --- | --- |
| 83% | Cc1nc(C(F)(F)F)ccc1C(=O)Nc1ccc(Oc2ccc(NC(=O)c3ccc(C(F)(F)F)cc3)c(C(=O)O)c2)cc1 [8:5, 5-[4-((2-methyl-6-(trifluoro-methyl)-pyridine-3-carbonyl)-amino)-phenoxy]-2-(4-(trifluoro-methyl)-benzoylamino)-benzoic acid] |
| 89% | CCCCc1ccc(C(=O)Nc2ccc(Oc3ccc(NC(=O)c4ccccc4)cc3)cc2C(=O)O)cc1 [8:8, 5-(4-benzoylaminophenoxy)-2-(4-butylbenzoylamino)benzoic acid] |
| 70% | CCOc1ccc(C(=O)Nc2ccc(Oc3ccc(NC(=O)c4ccccc4)cc3)cc2C(=O)O)cc1 [8:11, 5-(4-benzoylaminophenoxy)-2-(4-ethoxybenzoylamino)-benzoic acid] |

Same assay, conditions: total concentration of title compound in the assay 10 μM; HTRF method

| inhibition at 10 µM | SMILES | % inh. |
| --- | --- | --- |
| 98% | CC(C)Oc1ccc(C(=O)Nc2ccc(Oc3ccc(NC(=O)c4ccc(Cl)cc4Cl)c(CC(=O)O)c3)cc2C(=O)O)cc1 [6:6, 5-[3-carboxymethyl-4-(2,4-dichloro-benzoyl-amino)phenoxy]-2-(4-isopropoxybenzoyl-amino)benzoic acid] | – |
| 100% | CCOc1c(Cl)cc(C(F)(F)F)cc1C(=O)Nc1ccc(Oc2ccc(NC(=O)c3ccc(OC(C)C)cc3)c(C(=O)O)c2)cc1CC(=O)O [6:7, 5-[3-carboxymethyl-4-(3-chloro-2-ethoxy-5-tri-fluoromethylbenzoyl-amino)phenoxy]-2-(4-isopropoxybenzoyl-amino)benzoic acid] | – |
| 93% | O=C(Nc1ccc(Oc2ccc([N+](=O)[O-])cc2)cc1C(=O)O)c1ccc(Cl)cc1Cl [8:2, 2-(2,4-dichlorobenzamido)-5-(4-nitrophenoxy)benzoic acid] | – |
| – | O=C(Nc1ccc(Oc2ccc(NC(=O)c3cc(Cl)ccc3O)cc2)cc1C(=O)O)c1ccc(C(F)(F)F)cc1 [8:3, 5-[4-(5-chloro-2-hydroxybenzoylamino)phenoxy]-2-(4-trifluoro-methylbenzoylamino)-benzoic acid] | 96% |
| 89% | CCCCc1ccc(C(=O)Nc2ccc(Oc3ccc(NC(=O)c4ccc(C(F)(F)F)cc4)c(C(=O)O)c3)cc2)cc1 [8:4, 5-[4-(4-(butyl)benzoylamino)-phenoxy]-2-(4-trifluoromethyl-benzoylamino)benzoic acid] | – |
| – | CN(C)c1ccc(C(=O)Nc2ccc(Oc3ccc(NC(=O)c4ccc(C(F)(F)F)cc4)c(C(=O)O)c3)cc2)cc1.Cl [8:6, 5-[4-(4-dimethylaminobenzoyl-amino)phenoxy]-2-(4-trifluoro-methylbenzoylamino)benzoic acid hydrochloride] | 97% |
| 88% | CCCCc1ccc(C(=O)Nc2ccc(Oc3ccc(NC(=O)c4cc(OC)cc(OC)c4)cc3)cc2C(=O)O)cc1 [8:9, 2-(4-butylbenzoylamino)-5-[4-(3,5-dimethoxybenzoylamino)-phenoxy]benzoic acid] | – |
| 67% | O=C(Nc1ccc(Oc2ccc(NC(=O)c3ccc(OC(F)(F)F)cc3)c(C(=O)O)c2)cc1)c1ccccc1 [8:10, 5-(4-benzoylaminophenoxy)-2-(4-trifluoromethoxy-benzoylamino)benzoic acid] | – |
| 99% | CCCCc1ccc(C(=O)Nc2ccc(Oc3ccc(NC(=O)c4ccccc4)c(C(=O)O)c3)cc2)cc1 [8:12, 2-benzoylamino-5-[4-(4-butyl-benzoylamino)phenoxy]-benzoic acid] | – |
| 98% | CC(C)Oc1ccc(C(=O)Nc2ccc(Oc3ccc(NC(=O)c4ccccc4)c(C(=O)O)c3)cc2)cc1 [8:13, 2-benzoylamino-5-[4-(4-iso-propoxybenzoylamino)-phenoxy]benzoic acid] | – |
| 100% | Cc1nc(C(F)(F)F)ccc1C(=O)Nc1ccc(Oc2ccc(NC(=O)c3ccc(OC(C)C)cc3)cc2)cc1C(=O)O [8:14, 5-[4-(4-isopropoxybenzoyl-amino)phenoxy]-2-[(2-methyl-6-trifluoromethylpyridine-3-carbonyl)amino]benzoic acid] | – |
| 99% | CC(C)(C)c1ccc(C(=O)Nc2ccc(Oc3ccc(NC(=O)c4cccnc4Cl)c(C(=O)O)c3)cc2)cc1 [8:16, 5-[4-(4-tert-Butylbenzoyl-amino)phenoxy]-2-[(2-chloro-pyridine-3-carbonyl)-amino]benzoic acid] | – |
| 98% | CC(C)(C)c1ccc(C(=O)Nc2ccc(Oc3ccc(NC(=O)c4cc(Cl)cnc4Cl)c(C(=O)O)c3)cc2)cc1 [8:17, 5-[4-(4-tert-Butylbenzoyl-amino)phenoxy]-2-[(2,5-di-chloropyridine-3-carbonyl)-amino]benzoic acid] | – |
| 99% | CC(C)(C)c1ccc(C(=O)Nc2ccc(Oc3ccc(NC(=O)c4ccccn4)c(C(=O)O)c3)cc2)cc1 [8:18, 5-[4-(4-tert-Butylbenzoyl-amino)phenoxy]-2-[(pyridine-2-carbonyl)-amino]benzoic acid] | – |
| 99% | COc1cc(Cl)ccc1C(=O)Nc1ccc(Oc2ccc(NC(=O)c3ccc(C(C)(C)C)cc3)cc2)cc1C(=O)O [8:19, 5-[4-(4-tert-Butylbenzoyl-amino)phenoxy]-2-(4-chloro-2-methoxybenzoylamino)-benzoic acid] | – |
| 96% | CC(C)(C)c1ccc(C(=O)Nc2ccc(Oc3ccc(NC(=O)c4ccc(Cl)nc4Cl)c(C(=O)O)c3)cc2)cc1 [8:20, 5-[4-(4-tert-Butylbenzoyl-amino)phenoxy]-2-[(2,6-di-chloropyridine-3-carbonyl)-amino]benzoic acid] | – |
| – | CCCCc1ccc(C(=O)Nc2ccc(Oc3ccc(N(C)C(=O)c4ccc(CCCC)cc4)cc3)cc2C(=O)O)cc1 [9:1, 5-(4-((N-methyl)-4-butylbenz-amido)phenoxy)-2-(4-butylbenz-amido)benzoic acid] | 100% |
| – | COc1ccc(C(=O)Nc2ccc(Oc3ccc(N(C)C(=O)c4ccc(C(C)(C)C)cc4)cc3)cc2C(=O)O)cc1 [9:2, 5-(4-((N-methyl)-4-tert-butylbenz-amido)phenoxy)-2-(4-methoxybenz-amido)benzoic acid] | 96% |
| – | CN(C(=O)c1ccc(C(C)(C)C)cc1)c1ccc(Oc2ccc(NC(=O)c3ccc(Cl)cc3Cl)c(C(=O)O)c2)cc1 [9:3, 5-(4-((N-methyl)-4-tert-butylbenz-amido)phenoxy)-2-(2,4-dichlorobenz-amido)benzoic acid] | 99% |
| 99% | CC(C)Oc1ccc(C(=O)Nc2ccc(Oc3ccc(N(C)C(=O)c4ccc(C(F)(F)F)cc4)cc3)cc2C(=O)O)cc1 [9:4, 5-(4-((N-methyl)-4-trifluoromethyl-benzamido)phenoxy)-2-(4-isopropoxy-benzamido)benzoic acid] | – |
| 98% | CN(C(=O)c1ccc(C(F)(F)F)cc1)c1ccc(Oc2ccc(NC(=O)c3ccc(Cl)cc3Cl)c(C(=O)O)c2)cc1 [9:5, 5-(4-((N-methyl)-4-trifluoromethyl-benzamido)phenoxy)-2-(2,4-dichloro-benzamido)benzoic acid] | – |
| 98% | CCCCc1ccc(C(=O)Nc2cccc(Oc3ccc(NC(=O)c4c(F)cccc4F)c(C(=O)O)c3)c2)cc1 [10:1, 5-[(3-(4-(1-butyl)benzoylamino)-phenoxy)]-2-(2,6-difluorobenzoyl-amino)benzoic acid] | – |
| 88% | CCCCc1ccc(C(=O)Nc2cccc(Oc3ccc(NC(=O)c4ccc(OC(F)(F)F)cc4)c(C(=O)O)c3)c2)cc1 [10:2, 5-[(3-(4(1-butyl)benzoylamino)-phenoxy)]-2-(4-trifluoromethoxy-benzoylamino)benzoic acid] | – |
| 95% | CCCCc1ccc(C(=O)Nc2cccc(Oc3ccc(NC(=O)c4ccccc4OC)c(C(=O)O)c3)c2)cc1 [10:3, 5-[(3-(4-(1-butyl)benzoylamino)-phenoxy)]-2-(2-methoxybenzoyl-amino)benzoic acid] | – |
| – | CCCCc1ccc(C(=O)Nc2cccc(Oc3ccc(NC(=O)c4ccc(C(F)(F)F)cc4F)c(C(=O)O)c3)c2)cc1 [10:4, 5-[3-((4-(1-butyl)benzoyl)amino)-phenoxy]-2-(2-fluoro-4-trifluoro-methylbenzoylamino)benzoic acid] | 95% |
| – | O=C(Nc1cccc(Oc2ccc(NC(=O)c3ccc(C(F)(F)F)cc3F)c(C(=O)O)c2)c1)c1cccc(C(F)(F)F)c1 [10:5, 2-(2-fluoro-4-trifluoromethylbenzoyl-amino)-5-[3-(3-trifluoro-methylbenzoylamino)phenoxy]benzoic acid] | 98% |
| 98% | O=C(Nc1cccc(Oc2ccc(NC(=O)c3ccc(C(F)(F)F)cc3F)c(C(=O)O)c2)c1)c1ccc(C(F)(F)F)cc1 [10:6, 2-(2-fluoro-4-trifluoromethylbenzoyl-amino)-5-[3-(4-trifluoromethylbenzoyl-amino)phenoxy]benzoic acid] | – |
| 97% | O=C(Nc1ccc(Oc2ccc(NS(=O)(=O)c3ccc(C(F)(F)F)cc3Cl)cc2)cc1C(=O)O)c1ccc(C(F)(F)F)cc1 [11:2, 5-[4-(2-chloro-4-trifluoromethyl-benzenesulfonylamino)phenoxy]-2-(4-trifluoromethylbenzoyl-amino)benzoic acid] | – |
| – | COc1ccc(S(=O)(=O)N(C)c2ccc(Oc3ccc(NC(=O)c4ccc(Cl)cc4Cl)c(C(=O)O)c3)cc2)cc1 [11:4] | 98% |

From patent publication US20110071197A1, “BIS-ARYL COMPOUNDS FOR USE AS MEDICAMENTS” (priority 2008, published 2011)
